Test results from article PMC10648852, “Molecular drivers of resistance to sulbactam-durlobactam in contemporary clinical isolates of Acinetobacter baumannii” (Antimicrobial Agents and Chemotherapy, 2023).
Read-outs that look alike come from different tables or passages of the source.

Key:
[1] = test system: isogenic A. baylyi ADP1 panel encoding wildtype or mutant PBP3; assay: Broth microdilution MIC, isogenic A. baylyi panel (PBP3 variants with or without overexpressed β-lactamases); type: cell-based; details: for increase in MIC values in the presence of β-lactamase: wildtype PBP3 strain
Procedure: To understand the effect of PBP3 variants on whole cell activity in the absence of other resistance determinants, the MIC values of sulbactam, SUL-DUR and comparator β-lactams were measured against an isogenic A. baylyi panel engineered to contain individual strains in which the endogenous PBP3 was replaced with the variant of interest.
Each of the A. baylyi panel members were then transformed with plasmids that constitutively expressed five distinct, representative β-lactamases commonly found in Acinetobacter clinical isolates (TEM-1, ADC-30, OXA-23, OXA-24 or OXA-66) and evaluated for changes in antibiotic susceptibility. […] . […] .
The isogenic A. baylyi panel used for chromosomal expression of various PBP3 mutants with or without constitutive expression of various β-lactamases were constructed as part of this study. The A. baylyi ADP1 PBP3 ORF was cloned into pUC19 with a gentamicin cassette inserted downstream of the PBP3 ORF for selection purposes. Additionally, 500 bp of flanking homology to the ADP1 genome were inserted upstream of the PBP3 ORF and downstream of the gentamicin cassette. […] Linear DNA consisting of the 500 bp upstream-PBP3-Gent-500 bp downstream fragment was cloned out of the pUC19 plasmid by PCR and used for transformation of the ADP1 strain. The strain was grown at 30°C overnight in LB medium shaking at 250 rpm. Seventy microliters of the overnight ADP1 culture were combined with 1 mL of fresh LB and 200 ng of linear DNA fragment and incubated for 5 h at 30°C and shaking at 200 rpm. Various dilutions of each culture were plated on LB agar supplemented with 10 µg/mL of gentamicin to select for transformants with successful chromosomal integrations. Integrants were verified by Sanger sequencing using purified genomic DNA.
For the constitutive expression of various β-lactamases, ORFs of bla TEM-1, bla ADC-30, bla OXA-23, bla OXA-24, and bla OXA-66 were cloned by PCR from various clinical strains that encode these genes and inserted into the pWH1266 plasmid modified to encode a kanamycin cassette for selection. These plasmids along with an empty vector were used to transform each of the A. baylyi ADP1 strains engineered above that encode wild-type PBP3 or variants. Transformations were carried out as done above with selection on LB agar supplemented with 20 µg/mL of kanamycin.
(§1) Antimicrobial susceptibility testing was performed using broth microdilution following standardized methods established by the Clinical Laboratory Standards Institute (CLSI) ([35], [36]). Quality control testing was performed as specified by CLSI using A. baumannii NCTC 13304 ([35]). MIC values were interpreted using CLSI breakpoints for all antimicrobial agents except those for which CLSI breakpoints are not available ([35]). SUL-DUR was tested as twofold dilutions of sulbactam in combination with a fixed concentration of 4 µg/mL durlobactam ([35]).

[2] = test system: A. baumannii KAB1544 and efflux overexpression mutants; assay: Broth microdilution MIC, isogenic A. baumannii overexpression efflux mutants; type: cell-based; details: for MIC: Acinetobacter baumannii; for change in MIC values relative to the parent strain: most of the AdeR and AdeS mutants (AdeABC overexpression), KAB1544
Procedure: (§2) To further assess the role of efflux in SUL-DUR activity against Acinetobacter spp., two panels of A. baumannii isogenic strains were tested. The first consisted of 7 members of an A. baumannii transposon library ([28]) with single gene disruptions in the adeABC, adeIJK, or adeT loci as compared to the parent strain, AB5075. […] This panel of strains consists of four different point mutants in AdeR and five different point mutants in AdeS, which result in the upregulation of AdeABC expression. In addition, this panel contains chromosomal deletions of adeL and adeN, which result in overexpression of AdeFGH and AdeIJK, respectively ([29]).
In contrast, sulbactam, SUL-DUR, and imipenem MIC values were unaffected by these mutants (Table 4).
(§3) The AB5075 parent strain as well as transposon interrupted AdeABC, AdeIJK, and AdeT were purchased from the Manoil laboratory at the University of Washington from their arrayed transposon mutant collection ([28]). The KAB1544 parent as well as efflux pump regulator mutants and deletions were constructed as previously described ([29]).
as §1

[3] = test system: A. baumannii PBP3 S390T; assay: Acylation rate constant (kinact/Ki), fluorescence anisotropy competition with BOCILLIN; details: variant data from McLeod et al. (2018)
[4] = test system: A. baumannii AB5075 and transposon mutants in efflux genes; assay: Broth microdilution MIC, isogenic A. baumannii transposon mutants in efflux genes; type: cell-based; details: for In vitro activity (MIC): tested in duplicate; for MIC changes as compared to the parent strain: all tested efflux gene disruptions, AB5075
Procedure: as §2
The parent and each isogenic mutant strain in both panels was measured for susceptibility to sulbactam, durlobactam, SUL-DUR, imipenem, and gentamicin. […].
as §3, §1

[5] = test system: 5,032 ABC clinical isolates; details: 5,032 ABC clinical isolates 2016-2021; durlobactam fixed at 4 µg/mL in SUL-DUR; cited from earlier work
[6] = Acinetobacter baylyi, A. baylyi, PBP3 H370Y, overexpressed ADC-30
[7] = Acinetobacter baylyi, A. baylyi, PBP3 H370Y, overexpressed OXA-23
[8] = Acinetobacter baylyi, A. baylyi, PBP3 H370Y, overexpressed OXA-24
[9] = Acinetobacter baylyi, A. baylyi, PBP3 H370Y, overexpressed OXA-66
[10] = Acinetobacter baylyi, A. baylyi, PBP3 H370Y, overexpressed TEM-1
[11] = Acinetobacter baylyi, A. baylyi, PBP3 H370Y, β-lactamase None (empty vector)
[12] = Acinetobacter baylyi, A. baylyi, PBP3 Wildtype, overexpressed ADC-30, read-out: MIC
[13] = Acinetobacter baylyi, A. baylyi, PBP3 Wildtype, overexpressed OXA-23, read-out: MIC
[14] = Acinetobacter baylyi, A. baylyi, PBP3 Wildtype, overexpressed OXA-24, read-out: MIC
[15] = Acinetobacter baylyi, A. baylyi, PBP3 Wildtype, overexpressed OXA-66, read-out: MIC
[16] = Acinetobacter baylyi, A. baylyi, PBP3 Wildtype, overexpressed TEM-1, read-out: MIC
[17] = Acinetobacter baylyi, A. baylyi, PBP3 Wildtype, β-lactamase None (empty vector), read-out: MIC
[18] = AdeR A91V, AdeABC overexpressed, read-out: MIC
[19] = AdeR D20N, AdeABC overexpressed, read-out: MIC
[20] = AdeR E219A, AdeABC overexpressed, read-out: MIC
[21] = AdeR P116L, AdeABC overexpressed, read-out: MIC
[22] = AdeS A94V, AdeABC overexpressed, read-out: MIC
[23] = AdeS G30D, AdeABC overexpressed, read-out: MIC
[24] = AdeS G103D, AdeABC overexpressed, read-out: MIC
[25] = AdeS R152K, AdeABC overexpressed, read-out: MIC
[26] = AdeS T153M, AdeABC overexpressed, read-out: MIC
[27] = Parent (KAB1544), no efflux pump overexpressed, read-out: MIC

| Compound | MIC [1, 6] | MIC [1, 7] | MIC [1, 8] | MIC [1, 9] | MIC [1, 10] | MIC [1, 11] | MIC [1, 12] | MIC [1, 13] | MIC [1, 14] | MIC [1, 15] | MIC [1, 16] | MIC [1, 17] | MIC [2, 18] | MIC [2, 19] | MIC [2, 20] | MIC [2, 21] | MIC [2, 22] | MIC [2, 23] | MIC [2, 24] | MIC [2, 25] | also measured |
| --- | --- | --- | --- | --- | --- | --- | --- | --- | --- | --- | --- | --- | --- | --- | --- | --- | --- | --- | --- | --- | --- |
| C[C@@H](O)[C@H]1C(=O)N2C(C(=O)O)=C(S[C@@H]3CN[C@H](C(=O)N(C)C)C3)[C@H](C)[C@H]12 [meropenem] | 0.06 µg/mL | 8 µg/mL | > 8 µg/mL | 0.5 µg/mL | 0.06 µg/mL | 0.06 µg/mL | 0.13 µg/mL | 8 µg/mL | > 8 µg/mL | 1 µg/mL | 0.13 µg/mL | 0.06 µg/mL |  |  |  |  |  |  |  |  | increase in MIC values in the presence of β-lactamase ([1]; OXA-23, OXA-24 and OXA-66): ≥ 4 fold |
| CC1(C)[C@H](C(=O)O)N2C(=O)C[C@H]2S1(=O)=O [sulbactam] | 2 µg/mL | > 64 µg/mL | > 64 µg/mL | 4 µg/mL | 4 µg/mL | 8 µg/mL | 2 µg/mL | > 64 µg/mL | 16 µg/mL | 8 µg/mL | 16 µg/mL | 4 µg/mL | 1 µg/mL | 1 µg/mL | 2 µg/mL | 1 µg/mL | 1 µg/mL | 1 µg/mL | 2 µg/mL | 1 µg/mL | MIC [2, 26]: 1 µg/mL; MIC [2, 27]: 2 µg/mL; MIC ([2]; ΔadeL, AdeFGH overexpressed): 1 µg/mL; MIC ([2]; ΔadeN, AdeIJK overexpressed): 2 µg/mL; change in MIC values relative to the parent strain [2]: unaffected; % WT [3]: 0.2%; In vitro activity (MIC) ([4]; Parent (AB5075)): 64 µg/mL; In vitro activity (MIC) ([4]; adeA::tn in AB5075): 32 µg/mL; In vitro activity (MIC) ([4]; adeB::tn in AB5075): 32 µg/mL; In vitro activity (MIC) ([4]; adeC::tn in AB5075): 64 µg/mL; In vitro activity (MIC) ([4]; adeI::tn in AB5075): 32 µg/mL; In vitro activity (MIC) ([4]; adeJ::tn in AB5075): 64 µg/mL; In vitro activity (MIC) ([4]; adeK::tn in AB5075): 32 µg/mL; In vitro activity (MIC) ([4]; adeT::tn in AB5075): 64 µg/mL; MIC changes as compared to the parent strain [4]: ≤ 2 fold; increase in MIC values in the presence of β-lactamase ([1]; TEM-1, OXA-23 and OXA-24): ≥ 4 fold; MIC ([1]; {}): >64 µg/mL; MIC50 [5]: 8 µg/mL; MIC90 [5]: 32 µg/mL |
| C[C@@H](O)[C@H]1C(=O)N2C(C(=O)O)=C(SCCN=CN)C[C@H]12 [imipenem] | 0.03 µg/mL | 4 µg/mL | > 8 µg/mL | 0.06 µg/mL | 0.03 µg/mL | 0.03 µg/mL | 0.13 µg/mL | 8 µg/mL | 8 µg/mL | 0.13 µg/mL | 0.03 µg/mL | 0.03 µg/mL | 0.5 µg/mL | 0.5 µg/mL | 0.25 µg/mL | 0.5 µg/mL | 0.5 µg/mL | 0.5 µg/mL | 0.25 µg/mL | 0.5 µg/mL | MIC [2, 26]: 0.5 µg/mL; MIC [2, 27]: 0.25 µg/mL; MIC ([2]; ΔadeL, AdeFGH overexpressed): 0.25 µg/mL; MIC ([2]; ΔadeN, AdeIJK overexpressed): 0.25 µg/mL; change in MIC values relative to the parent strain [2]: unaffected; % WT [3]: 120%; In vitro activity (MIC) ([4]; Parent (AB5075)): 16 µg/mL; In vitro activity (MIC) ([4]; adeA::tn in AB5075): 8 µg/mL; In vitro activity (MIC) ([4]; adeB::tn in AB5075): 8 µg/mL; In vitro activity (MIC) ([4]; adeC::tn in AB5075): 16 µg/mL; In vitro activity (MIC) ([4]; adeI::tn in AB5075): 16 µg/mL; In vitro activity (MIC) ([4]; adeJ::tn in AB5075): 16 µg/mL; In vitro activity (MIC) ([4]; adeK::tn in AB5075): 16 µg/mL; In vitro activity (MIC) ([4]; adeT::tn in AB5075): 8 µg/mL; MIC changes as compared to the parent strain [4]: ≤ 2 fold; increase in MIC values in the presence of β-lactamase ([1]; ADC-30, OXA-23, OXA-24 and OXA-66): ≥ 4 fold |
